Read-outs that look alike come from different tables or passages of the source. Where a SMILES comes first, the peptide text is derived from it.
Tests used:
[1] = biological target: T1, fibrinogen fragment D (Homo sapiens, UniProt P02675+P02679); experiment: SPR binding kinetics of knob 'A' peptides on immobilized fibrinogen fragment D; details: for kon / koff: Langmuir 1:1 model; for kon: read-out: ka, association rate; for koff: read-out: kd, dissociation rate; for Kd: heterogeneous ligand model, KD = kd/ka
T1 construct: Fibrinogen fragment D, comprising the C-terminal polymerization pockets of fibrinogen (i.e. D-domain) without the N-terminal knobs; purchased Enzyme Research Laboratories FIB3
T1 sequence (P02679 89-432 limits assumed): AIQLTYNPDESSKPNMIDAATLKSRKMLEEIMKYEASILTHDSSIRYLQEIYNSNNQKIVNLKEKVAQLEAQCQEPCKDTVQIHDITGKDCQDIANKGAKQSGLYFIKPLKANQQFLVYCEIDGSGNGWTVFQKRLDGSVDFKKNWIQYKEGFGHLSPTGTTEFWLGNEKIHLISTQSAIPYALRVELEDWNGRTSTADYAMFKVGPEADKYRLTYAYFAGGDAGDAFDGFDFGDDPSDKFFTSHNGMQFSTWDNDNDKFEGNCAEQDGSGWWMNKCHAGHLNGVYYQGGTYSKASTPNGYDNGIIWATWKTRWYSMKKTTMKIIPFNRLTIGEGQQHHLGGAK
T1 sequence (P02675 164-491 limits assumed): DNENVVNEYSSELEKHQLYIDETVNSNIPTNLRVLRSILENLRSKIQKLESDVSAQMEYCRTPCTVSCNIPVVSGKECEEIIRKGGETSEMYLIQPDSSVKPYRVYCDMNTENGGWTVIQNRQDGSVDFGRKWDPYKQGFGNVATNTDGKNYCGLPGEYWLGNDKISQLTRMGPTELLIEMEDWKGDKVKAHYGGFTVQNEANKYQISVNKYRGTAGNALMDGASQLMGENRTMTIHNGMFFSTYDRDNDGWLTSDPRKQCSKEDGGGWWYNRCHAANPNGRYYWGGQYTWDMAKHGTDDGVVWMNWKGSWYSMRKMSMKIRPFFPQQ
T1 sequence (P02671 124-216 partner limits assumed): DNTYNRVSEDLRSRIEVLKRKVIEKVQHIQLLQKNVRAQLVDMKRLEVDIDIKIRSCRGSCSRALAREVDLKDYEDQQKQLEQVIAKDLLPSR
Description: Human fibrinogen (Enzyme Research Laboratories, South Bend, Ind.) at 2 mg/mL was digested with 0.1 U/mL human plasmin (ERL) in HEPES+CaCl2 buffer (150 mM NaCl, 5 mM CaCl2, 25 mM HEPES; pH 7.4) overnight at room temperature. Fragment D was isolated as previously described, with slight modifications (Kostelansky M S, et al. Biochemistry. 2002; 41(40):12124-12132). Briefly, the plasmin-digested fibrinogen and GPRPAA (SEQ ID NO:10) beads were incubated for 30 min, with occasional agitation. The unbound proteins and protein fragments were removed with excessive washing with HEPES+CaCl2 buffer. Fragment D was eluted with 1M sodium bromide and 50 mM sodium acetate (pH 5.3). Eluted samples were pooled together and exchanged back into HEPES+CaCl2 buffer using a centrifugal filter (MWCO 10,000). Fragment D was verified by SDS-PAGE and stored at −80° C. until use.
The Biacore 2000 (Biacore Lifesciences, GE Healthcare, Pittsburgh, Pa.) was used investigate kinetic binding constants (ka and kd) of knob ‘A’ peptide variants for fibrinogen fragment D. Briefly, fragment D was covalently immobilized to gold-coated SPR sensor chips via self-assembled monolayer (SAM) surface chemistry in order to generate a non-fouling surface with a controlled density of reactive carboxylic acid groups. Mixed SAMs were generated on gold-coated chips as described previously (Petrie T A, et al. Biomaterials. 2006; 27(31):5459-5470) by incubating with a 1 mM mixture of tri(ethylene glycol)-terminated alkanethiols (HS-(CH2)11—(OCH2CH2)3—OH; EG3; ProChimia, Poland) and carboxylic acid-terminated alkanethiols (HS-(CH2)11—(OCH2CH2)6—OCH2COOH; EG6-COOH) for 4 hrs. Upon loading the sensor chip into the Biacore 2000, the EG6-COOH in all four flow cells was activated by flowing 200 mM 1-ethyl-3-(3-dimethylaminopropyl) carbodiimide (EDC; Sigma Aldrich, St. Louis, Mo.) and 50 mM N-hydroxysuccinimide (NHS; Sigma Aldrich) (5 μL/min for 10 min). Immediately following activation, fragment D was immobilized in three flow cells (5 μL/min for 10 min) to achieve 1800-2000 resonance units (RU; 1RU˜1 pg/mm^2). Unreacted NHS groups were quenched in all four flow cells (three sample cells and one reference cell) with 20 mM ethanolamine ([…] for 10 min). Upon stabilization of the baseline signal, kinetic binding experiments were run in duplicate with the peptide variants as the flow analytes. Five varying concentrations for each peptide (0.94 μM to 150 μM) were flowed at 25 μL/min for 4 min immediately followed by a 10 min dissociation phase. Between each run, the surface was regenerated with 1M sodium bromide and 50 mM sodium acetate (pH 6.0). SPR experiments were performed three times with varying peptide injection order to rule out binding trends associated with injection sequence. Peptide solutions were incubated with tris(2-carboxyethyl)phosphine (TCEP) immobilized on agarose beads (Thermo Fisher Scientific, Inc; Rockland, Ill.) to ensure reduction of any disulfide bonds between C-terminal cysteines.
SPR sensorgrams were analyzed with the aid of Scrubber 2 and ClampXP software (Center for Biomolecular Interactions Analysis, University of Utah) (Morton T A, et al. Methods Enzymol. 1998; 295:268-294; Morton T A, et al. Anal Biochem. 1995; 227(1):176-185; Myszka D G, et al. Trends Biochem Sci. 1998; 23(4):149-150). Prior to analysis, all sensorgrams were inspected for abnormalities (i.e. baseline drift, air spikes, or irregular deviations) and excluded. Reference cell responses were subtracted from corresponding active response curves. Double-referenced curves were acquired by further subtracting the reference cell blank buffer injections from each reference-subtracted response curve (Myszka D G. Mol. Recognit. 1999; 12(5):279-284). All double-referenced curves were normalized by the molecular weight of each peptide and multiplied by 1000 to account for minor variations in response due to molecular weight. The resulting curves were then analyzed and fitted to the kinetic models. […]

[2] = biological target: T2, fibrinogen (Homo sapiens, UniProt P02675+P02679); experiment: ELISA specificity assay: soluble Gxxx tetrapeptides competing with immobilized GPRP-FnIII9-10-C; assay type: binding; details: tetrapeptide in 10^2- to 10^4-fold molar excess; one-hour pre-incubation
T2 sequence (P02679 27-437 isoform P02679-2 limits assumed): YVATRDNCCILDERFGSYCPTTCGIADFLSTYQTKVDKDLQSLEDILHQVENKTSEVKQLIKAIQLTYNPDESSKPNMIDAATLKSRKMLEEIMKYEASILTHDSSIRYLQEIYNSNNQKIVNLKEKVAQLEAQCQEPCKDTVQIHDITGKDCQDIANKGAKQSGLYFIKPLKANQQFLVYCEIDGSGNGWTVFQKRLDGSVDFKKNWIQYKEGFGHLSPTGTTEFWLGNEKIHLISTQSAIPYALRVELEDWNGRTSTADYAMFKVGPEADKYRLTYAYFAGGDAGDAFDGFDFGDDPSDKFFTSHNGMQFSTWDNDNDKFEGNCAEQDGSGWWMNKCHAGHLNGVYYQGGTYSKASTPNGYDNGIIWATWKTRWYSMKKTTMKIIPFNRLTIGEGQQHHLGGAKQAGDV
T2 sequence (P02675 31-491): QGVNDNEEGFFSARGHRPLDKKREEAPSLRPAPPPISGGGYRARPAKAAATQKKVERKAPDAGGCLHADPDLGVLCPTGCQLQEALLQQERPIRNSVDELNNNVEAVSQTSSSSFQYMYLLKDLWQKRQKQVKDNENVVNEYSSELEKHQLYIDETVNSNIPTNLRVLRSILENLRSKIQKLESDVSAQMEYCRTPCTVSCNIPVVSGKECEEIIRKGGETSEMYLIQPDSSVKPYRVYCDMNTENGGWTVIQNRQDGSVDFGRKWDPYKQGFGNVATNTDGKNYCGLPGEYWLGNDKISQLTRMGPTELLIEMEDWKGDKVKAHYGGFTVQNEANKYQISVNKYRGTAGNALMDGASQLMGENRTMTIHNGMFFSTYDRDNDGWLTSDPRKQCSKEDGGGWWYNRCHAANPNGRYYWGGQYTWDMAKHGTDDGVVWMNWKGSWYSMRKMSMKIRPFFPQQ
T2 sequence (P02671 20-629 partner limits assumed): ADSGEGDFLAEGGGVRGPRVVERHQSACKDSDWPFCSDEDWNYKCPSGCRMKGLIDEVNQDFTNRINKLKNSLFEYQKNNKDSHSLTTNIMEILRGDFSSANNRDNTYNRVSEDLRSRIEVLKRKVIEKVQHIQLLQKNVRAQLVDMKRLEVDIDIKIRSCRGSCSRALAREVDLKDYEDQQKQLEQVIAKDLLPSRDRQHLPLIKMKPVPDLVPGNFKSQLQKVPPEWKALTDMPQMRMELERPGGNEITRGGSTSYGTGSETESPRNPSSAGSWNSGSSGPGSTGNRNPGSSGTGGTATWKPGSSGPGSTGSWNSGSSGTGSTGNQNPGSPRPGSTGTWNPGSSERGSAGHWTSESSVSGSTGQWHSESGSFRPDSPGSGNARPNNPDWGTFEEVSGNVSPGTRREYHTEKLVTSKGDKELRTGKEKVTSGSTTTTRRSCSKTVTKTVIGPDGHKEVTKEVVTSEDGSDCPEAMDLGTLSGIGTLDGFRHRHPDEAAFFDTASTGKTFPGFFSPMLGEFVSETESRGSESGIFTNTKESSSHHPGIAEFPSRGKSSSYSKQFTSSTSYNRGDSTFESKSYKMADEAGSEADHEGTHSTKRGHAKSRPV
Description: A modified ELISA technique was used to establish the affinity of fibrinogen for the various Gxxx-FnIII9-10-C (SEQ ID NO:20) proteins covalently immobilized on maleimide-activated plates via their C-terminal cysteines. Sulfhydryl-containing proteins/peptides were added to pre-blocked maleimide-activated 96-well plates (Pierce, Thermo Scientific, Rockford, Ill.) at 10 μg/mL in conjugation buffer (CB) comprising 150 mM NaCl, 100 mM phosphate, 10 mM EDTA, pH 7.2, with attachment occurring via maleimide-sulfhydryl (thioether) linkages. TCEP (1 mM) was added to maintain sulfhydryl groups in the reduced form. Following, unreacted maleimide groups were quenched with 20 μg/mL cysteine in CB. Human fibrinogen (25 μg/mL) was incubated with the substrates and unbound protein removed by washing. Bound fibrinogen was detected using HRP-conjugated goat anti-fibrinogen antibody (MP Biomedicals #55239) and 1-Step™ Ultra TMB-ELISA (Pierce). The TMB reaction was quenched with 1 M H2SO4 before measuring the Abs450 nm using the SPECTRAMAX® M2 (Molecular Devices, Sunnyvale, Calif.). All intervening wash steps were conducted using washing buffer (WB) comprising 150 mM NaCl, 100 mM phosphate, 0.05% Tween-20, pH 7.2; all binding steps were conducted using binding buffer (BB) comprising PBS+1% BSA. For basic affinity assays, the concentration of the fusion proteins was varied. For specificity assays, varying concentrations of Gxxx (SEQ ID NO:20) tetrapeptides (Genscript, Piscataway, N.J.) were added to the fibrinogen solution during incubation with the covalently immobilized proteins.
The tetrapeptides GPRV (SEQ ID NO:2) and GHRP (SEQ ID NO:3) are also known to bind fibrinogen via knob:pocket interactions, albeit with reduced affinities (Laudano A P, et al. Biochemistry 1980, 19(5):1013-1019).

Compound	kon [1] [M⁻¹ s⁻¹]	koff [1] [s⁻¹]	Kd ([1]; site 1, read-out: KD1) [µM]	Kd ([1]; site 2, read-out: KD2) [µM]	competition with immobilized GPRP-FnIII9-10-C for binding to fibrinogen [2]	SPR binding response (in words) [1]
C[C@H](NC(=O)[C@H](C)NC(=O)[C@@H]1CCCN1C(=O)[C@H](CCCNC(=N)N)NC(=O)[C@@H]1CCCN1C(=O)CN)C(=O)N[C@@H](CS)C(=O)O [GPRPAAC] (H-GPRPAAC-OH)	1140 ± 30	0.0117 ± 0.00017	4.53	8.52	–	–
C[C@H](NC(=O)[C@@H]1CCCN1C(=O)[C@H](Cc1ccccc1)NC(=O)[C@@H]1CCCN1C(=O)[C@H](CCCNC(=N)N)NC(=O)[C@@H]1CCCN1C(=O)CN)C(=O)N[C@@H](CS)C(=O)O [GPRPFPAC] (H-GPRPFPAC-OH)	12500 ± 260	0.00727 ± 8e-05	3.73	1.08	–	–
GHRP (listed as Homo sapiens)	–	–	–	–	not a significant competitor	–
N=C(N)NCCC[C@H](NC(=O)[C@H](CCC(=O)O)NC(=O)[C@@H]1CCCN1C(=O)[C@@H]1CCCN1C(=O)[C@H](CCCNC(=N)N)NC(=O)[C@@H]1CCCN1C(=O)CN)C(=O)N[C@@H](CS)C(=O)O [GPRPPERC] (H-GPRPPERC-OH)	1290 ± 30	0.00992 ± 0.00013	18.2	2.93	–	–

The remaining lines, values ahead:

kon [1] [M⁻¹ s⁻¹]	koff [1] [s⁻¹]	Kd ([1]; site 1, read-out: KD1) [µM]	Kd ([1]; site 2, read-out: KD2) [µM]	competition with immobilized GPRP-FnIII9-10-C for binding to fibrinogen [2]	SPR binding response (in words) [1]	Compound
280 ± 4	0.02343 ± 0.00023	53.9	15.7	–	–	CC(C)[C@H](NC(=O)[C@H](CCCNC(=N)N)NC(=O)[C@@H]1CCCN1C(=O)CN)C(=O)N[C@H](C(=O)N[C@@H](CCC(=O)O)C(=O)N[C@@H](CCCNC(=N)N)C(=O)N[C@@H](CS)C(=O)O)C(C)C [GPRVVERC] (H-GPRVVERC-OH)
–	–	–	–	to a lesser extent as compared to GPRP	–	GPRV (listed as Homo sapiens)
90 ± 1	0.01073 ± 4e-05	48.5	25	–	–	CC(C)[C@H](NC(=O)[C@H](CCCNC(=N)N)NC(=O)[C@@H]1CCCN1C(=O)CN)C(=O)N[C@H](C(=O)N[C@@H](C)C(=O)N[C@@H](C)C(=O)N[C@@H](CS)C(=O)O)C(C)C [GPRVVAAC] (H-GPRVVAAC-OH)
–	–	–	–	–	minimal binding response	GPSPAAC (listed as Homo sapiens) [reference compound]
